Experimental data: publication PMC5452050 (ACS Omega, 2017)
Values belong to the compound of their own block, whether it stands above or below them.

How the values were obtained:
[1] = system: MV4-11 cells; assay: MV4-11 cell proliferation; assay type: cell-based
[2] = system: FLT3-ITD phosphorylation; assay: Western blot of FLT3 signaling in MOLM13^FLT3-ITD cells; assay type: cell-based; conditions: 1 h, read-out: FLT3 IC50 estimated from loss of FLT3-ITD phosphorylation
[3] = Plasma stability; assay type: in vitro ADME; conditions: mouse
[4] = Plasma stability; assay type: in vitro ADME; conditions: rat
[5] = Plasma stability; assay type: in vitro ADME; conditions: human
[6] = PBS stability; assay type: physicochemical
[7] = Simulated gastric fluid; assay type: physicochemical
[8] = In vivo pharmacokinetic study; design: species or system mouse
[9] = biological target: CLK1 (Homo sapiens, UniProt P49759); assay: Kd determination; assay type: binding
CLK1, sequence (P49759 whole entry): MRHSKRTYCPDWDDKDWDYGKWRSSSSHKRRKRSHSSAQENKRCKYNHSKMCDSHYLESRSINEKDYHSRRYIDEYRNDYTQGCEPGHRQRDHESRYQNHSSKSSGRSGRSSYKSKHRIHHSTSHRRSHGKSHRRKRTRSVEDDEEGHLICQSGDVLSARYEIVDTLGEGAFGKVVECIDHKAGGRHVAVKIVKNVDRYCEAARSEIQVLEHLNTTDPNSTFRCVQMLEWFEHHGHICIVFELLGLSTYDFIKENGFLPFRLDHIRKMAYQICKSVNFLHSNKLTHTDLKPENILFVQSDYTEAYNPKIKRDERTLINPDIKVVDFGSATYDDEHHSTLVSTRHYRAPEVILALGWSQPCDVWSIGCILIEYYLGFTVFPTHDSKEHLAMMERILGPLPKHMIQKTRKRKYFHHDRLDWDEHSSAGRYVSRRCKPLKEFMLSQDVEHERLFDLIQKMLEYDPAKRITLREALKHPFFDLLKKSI

[10] = biological target: CLK4 (Homo sapiens, UniProt Q9HAZ1); assay: Kd determination; assay type: binding
CLK4, sequence (Q9HAZ1 whole entry): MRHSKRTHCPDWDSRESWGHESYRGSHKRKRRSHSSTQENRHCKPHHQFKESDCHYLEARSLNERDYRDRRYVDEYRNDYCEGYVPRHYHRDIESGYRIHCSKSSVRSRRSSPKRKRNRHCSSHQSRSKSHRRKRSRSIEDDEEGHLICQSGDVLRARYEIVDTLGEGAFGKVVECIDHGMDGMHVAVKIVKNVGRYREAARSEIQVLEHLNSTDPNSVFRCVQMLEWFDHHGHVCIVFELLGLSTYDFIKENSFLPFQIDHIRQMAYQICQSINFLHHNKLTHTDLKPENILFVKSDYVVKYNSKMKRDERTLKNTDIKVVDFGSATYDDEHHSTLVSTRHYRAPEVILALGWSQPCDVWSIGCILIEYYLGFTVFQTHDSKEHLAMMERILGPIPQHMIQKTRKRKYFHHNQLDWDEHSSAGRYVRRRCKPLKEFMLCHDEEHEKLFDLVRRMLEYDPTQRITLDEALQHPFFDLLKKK

[11] = biological target: CSF1R (Homo sapiens, UniProt P07333); assay: Kd determination; assay type: binding
[12] = biological target: EPHB6 (Homo sapiens, UniProt O15197); assay: Kd determination; assay type: binding
[13] = biological target: JAK1 (JH2 domain-pseudokinase) (Homo sapiens, UniProt P23458); assay: Kd determination; assay type: binding
[14] = biological target: JAK2 (JH1 domain-catalytic) (Homo sapiens, UniProt O60674); assay: Kd determination; assay type: binding
[15] = biological target: PDGFRB (Homo sapiens, UniProt P09619); assay: Kd determination; assay type: binding
PDGFRB, sequence (P09619 33-1106): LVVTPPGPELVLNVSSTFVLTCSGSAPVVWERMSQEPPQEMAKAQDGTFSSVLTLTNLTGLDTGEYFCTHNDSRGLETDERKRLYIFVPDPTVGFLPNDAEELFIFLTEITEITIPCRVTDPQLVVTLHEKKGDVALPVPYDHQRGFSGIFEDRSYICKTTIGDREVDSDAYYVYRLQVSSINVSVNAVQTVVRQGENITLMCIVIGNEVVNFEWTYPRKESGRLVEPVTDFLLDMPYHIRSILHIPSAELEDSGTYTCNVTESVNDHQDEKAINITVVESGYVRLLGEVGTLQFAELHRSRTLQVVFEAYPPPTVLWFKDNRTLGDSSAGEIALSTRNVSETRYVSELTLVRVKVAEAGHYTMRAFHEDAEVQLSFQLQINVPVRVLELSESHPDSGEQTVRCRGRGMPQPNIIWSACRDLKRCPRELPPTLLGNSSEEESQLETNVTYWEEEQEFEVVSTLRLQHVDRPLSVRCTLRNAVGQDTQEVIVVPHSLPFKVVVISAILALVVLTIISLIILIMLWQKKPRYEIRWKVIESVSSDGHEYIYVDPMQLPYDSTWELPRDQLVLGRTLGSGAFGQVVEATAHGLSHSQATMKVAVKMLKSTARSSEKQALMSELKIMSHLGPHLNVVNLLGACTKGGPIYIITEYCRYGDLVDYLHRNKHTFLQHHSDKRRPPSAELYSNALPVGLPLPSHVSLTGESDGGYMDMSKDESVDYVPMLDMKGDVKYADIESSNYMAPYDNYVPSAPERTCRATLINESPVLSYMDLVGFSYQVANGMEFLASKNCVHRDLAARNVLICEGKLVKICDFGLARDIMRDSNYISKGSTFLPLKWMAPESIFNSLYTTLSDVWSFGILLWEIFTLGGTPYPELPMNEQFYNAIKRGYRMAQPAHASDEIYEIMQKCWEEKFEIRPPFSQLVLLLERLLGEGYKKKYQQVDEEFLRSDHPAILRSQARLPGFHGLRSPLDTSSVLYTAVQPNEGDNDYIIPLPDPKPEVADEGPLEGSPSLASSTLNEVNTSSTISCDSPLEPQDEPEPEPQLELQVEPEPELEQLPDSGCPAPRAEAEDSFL

[16] = biological target: PIK4CB (Homo sapiens, UniProt Q9UBF8); assay: Kd determination; assay type: binding
PIK4CB, sequence (Q9UBF8 whole entry, the tested form may be a part): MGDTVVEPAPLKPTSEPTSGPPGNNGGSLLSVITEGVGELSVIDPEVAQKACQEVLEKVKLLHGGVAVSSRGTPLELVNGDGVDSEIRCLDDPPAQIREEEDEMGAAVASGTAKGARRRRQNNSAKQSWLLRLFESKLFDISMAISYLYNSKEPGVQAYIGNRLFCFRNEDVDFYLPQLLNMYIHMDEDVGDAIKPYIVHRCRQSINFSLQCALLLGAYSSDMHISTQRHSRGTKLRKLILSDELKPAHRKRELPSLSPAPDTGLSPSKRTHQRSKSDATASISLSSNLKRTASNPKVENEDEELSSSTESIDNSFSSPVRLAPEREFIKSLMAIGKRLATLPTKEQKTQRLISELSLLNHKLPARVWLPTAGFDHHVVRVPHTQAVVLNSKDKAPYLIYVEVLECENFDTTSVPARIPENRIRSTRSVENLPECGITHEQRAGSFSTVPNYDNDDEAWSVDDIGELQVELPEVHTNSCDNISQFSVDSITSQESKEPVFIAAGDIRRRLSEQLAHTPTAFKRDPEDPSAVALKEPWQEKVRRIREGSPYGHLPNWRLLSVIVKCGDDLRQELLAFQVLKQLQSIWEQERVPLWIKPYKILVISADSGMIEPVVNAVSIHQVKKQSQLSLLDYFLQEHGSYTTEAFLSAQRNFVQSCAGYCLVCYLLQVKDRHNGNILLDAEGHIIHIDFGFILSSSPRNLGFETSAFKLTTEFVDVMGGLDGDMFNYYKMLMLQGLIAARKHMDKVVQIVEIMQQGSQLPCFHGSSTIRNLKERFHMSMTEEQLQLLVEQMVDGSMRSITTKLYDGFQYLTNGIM

[17] = biological target: TYK2 (JH1 domain-catalytic) (Homo sapiens, UniProt P29597); assay: Kd determination; assay type: binding
[18] = Liver microsomal stability; conditions: female, CD-1, mouse, liver microsomes, pH 7.4
[19] = Liver microsomal stability; conditions: rat, liver microsomes, pH 7.4
[20] = Liver microsomal stability; conditions: dog, liver microsomes, pH 7.4
[21] = Liver microsomal stability; conditions: both, human, liver microsomes, pH 7.4
[22] = biological target: ABL1 (H396P)-phosphorylated (Homo sapiens, UniProt P00519, H396P); assay: Kd determination; assay type: binding
[23] = biological target: AURKA (Homo sapiens, UniProt O14965); assay: Kd determination; assay type: binding
[24] = biological target: AURKC (Homo sapiens, UniProt Q9UQB9); assay: Kd determination; assay type: binding
[25] = biological target: AXL (Homo sapiens, UniProt P30530); assay: Kd determination; assay type: binding
AXL, sequence (P30530 26-894): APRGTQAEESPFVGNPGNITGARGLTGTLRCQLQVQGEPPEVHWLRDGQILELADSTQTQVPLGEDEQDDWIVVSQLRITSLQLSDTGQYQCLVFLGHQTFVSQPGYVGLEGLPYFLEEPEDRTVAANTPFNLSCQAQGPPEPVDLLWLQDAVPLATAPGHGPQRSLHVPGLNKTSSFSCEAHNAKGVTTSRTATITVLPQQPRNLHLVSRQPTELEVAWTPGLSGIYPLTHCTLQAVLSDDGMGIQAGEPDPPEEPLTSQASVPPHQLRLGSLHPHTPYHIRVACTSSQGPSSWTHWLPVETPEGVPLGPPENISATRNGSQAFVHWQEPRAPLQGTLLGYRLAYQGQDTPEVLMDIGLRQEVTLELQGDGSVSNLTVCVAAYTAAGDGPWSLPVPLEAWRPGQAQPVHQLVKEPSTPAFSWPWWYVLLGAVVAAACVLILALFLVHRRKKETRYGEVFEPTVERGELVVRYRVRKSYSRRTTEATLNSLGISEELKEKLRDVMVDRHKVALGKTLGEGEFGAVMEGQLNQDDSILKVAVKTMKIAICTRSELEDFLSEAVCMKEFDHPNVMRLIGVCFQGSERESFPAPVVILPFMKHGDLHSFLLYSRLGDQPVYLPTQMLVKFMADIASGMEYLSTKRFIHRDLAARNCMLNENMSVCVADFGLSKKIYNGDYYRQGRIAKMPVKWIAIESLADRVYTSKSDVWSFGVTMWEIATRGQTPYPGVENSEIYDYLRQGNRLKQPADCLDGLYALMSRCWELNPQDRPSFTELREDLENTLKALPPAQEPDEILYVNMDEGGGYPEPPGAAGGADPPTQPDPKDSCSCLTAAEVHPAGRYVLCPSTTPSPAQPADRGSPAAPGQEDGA

[26] = biological target: BLK (Homo sapiens, UniProt P51451); assay: Kd determination; assay type: binding
[27] = biological target: CSF1R-autoinhibited (Homo sapiens, UniProt P07333); assay: Kd determination; assay type: binding
[28] = biological target: HCK (Homo sapiens, UniProt P08631); assay: Kd determination; assay type: binding
[29] = biological target: IRAK1 (Homo sapiens, UniProt P51617); assay: Kd determination; assay type: binding
[30] = biological target: KIT (Homo sapiens, UniProt P10721); assay: Kd determination; assay type: binding
[31] = biological target: LCK (Homo sapiens, UniProt P06239); assay: Kd determination; assay type: binding
[32] = biological target: MERTK (Homo sapiens, UniProt Q12866); assay: Kd determination; assay type: binding
[33] = biological target: MINK (Homo sapiens, UniProt Q8N4C8); assay: Kd determination; assay type: binding
MINK, sequence (Q8N4C8 whole entry): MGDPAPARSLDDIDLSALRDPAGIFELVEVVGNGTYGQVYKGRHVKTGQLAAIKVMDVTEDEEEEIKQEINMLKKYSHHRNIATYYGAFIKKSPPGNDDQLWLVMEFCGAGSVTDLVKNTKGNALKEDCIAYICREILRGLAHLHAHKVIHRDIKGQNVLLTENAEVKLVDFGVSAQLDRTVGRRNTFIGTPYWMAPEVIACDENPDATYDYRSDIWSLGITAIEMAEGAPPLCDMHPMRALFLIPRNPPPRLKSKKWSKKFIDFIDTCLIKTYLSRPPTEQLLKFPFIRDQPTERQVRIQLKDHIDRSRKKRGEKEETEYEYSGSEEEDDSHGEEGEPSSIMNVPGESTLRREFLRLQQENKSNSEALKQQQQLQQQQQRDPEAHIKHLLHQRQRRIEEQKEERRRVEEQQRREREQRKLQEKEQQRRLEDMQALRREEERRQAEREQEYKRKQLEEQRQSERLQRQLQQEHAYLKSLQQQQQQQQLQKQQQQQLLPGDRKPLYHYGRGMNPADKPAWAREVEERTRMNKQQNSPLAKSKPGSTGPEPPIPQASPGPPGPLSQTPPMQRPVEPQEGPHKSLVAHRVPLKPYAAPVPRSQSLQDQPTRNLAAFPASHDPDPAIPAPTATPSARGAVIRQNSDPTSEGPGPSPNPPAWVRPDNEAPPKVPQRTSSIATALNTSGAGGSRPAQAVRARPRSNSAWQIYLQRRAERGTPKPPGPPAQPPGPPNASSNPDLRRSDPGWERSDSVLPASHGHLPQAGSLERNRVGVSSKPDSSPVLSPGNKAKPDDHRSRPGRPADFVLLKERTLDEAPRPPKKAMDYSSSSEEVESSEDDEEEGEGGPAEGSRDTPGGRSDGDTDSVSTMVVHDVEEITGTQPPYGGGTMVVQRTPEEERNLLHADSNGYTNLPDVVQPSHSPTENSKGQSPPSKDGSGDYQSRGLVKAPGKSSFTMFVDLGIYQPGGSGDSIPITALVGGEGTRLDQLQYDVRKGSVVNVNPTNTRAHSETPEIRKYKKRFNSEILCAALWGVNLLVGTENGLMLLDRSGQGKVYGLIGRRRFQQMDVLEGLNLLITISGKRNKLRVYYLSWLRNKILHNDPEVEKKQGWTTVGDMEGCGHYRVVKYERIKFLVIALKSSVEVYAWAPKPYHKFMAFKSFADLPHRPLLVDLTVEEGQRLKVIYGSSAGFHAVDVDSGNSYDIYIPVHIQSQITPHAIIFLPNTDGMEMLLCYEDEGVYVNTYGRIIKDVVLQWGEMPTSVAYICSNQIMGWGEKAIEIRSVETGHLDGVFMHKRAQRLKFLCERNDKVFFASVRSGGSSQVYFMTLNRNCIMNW

[34] = biological target: PRKCQ (Homo sapiens, UniProt Q04759); assay: Kd determination; assay type: binding
[35] = biological target: RET (M918T) (Homo sapiens, UniProt P07949, M918T); assay: Kd determination; assay type: binding
[36] = biological target: RET (V804M) (Homo sapiens, UniProt P07949, V804M); assay: Kd determination; assay type: binding
[37] = biological target: SRC (Homo sapiens, UniProt P12931); assay: Kd determination; assay type: binding
[38] = biological target: TRKA (Homo sapiens, UniProt P04629); assay: Kd determination; assay type: binding
[39] = biological target: TYRO3 (Homo sapiens, UniProt Q06418); assay: Kd determination; assay type: binding
[40] = female, C57BL/6, mouse, plasma, ip, 3 mg/kg
[41] = female, C57BL/6, mouse, plasma, ip, 5 mg/kg
[42] = female, C57BL/6, mouse, plasma, ip, 10 mg/kg

IC50 [2]: 50 to 100 nM
plasma stability [3]: >48 h
plasma stability [4]: >48 h
plasma stability [5]: >48 h
PBS stability ([6]; pH = 3.0): >48 h
PBS stability ([6]; pH = 5.0): >48 h
PBS stability ([6]; pH = 7.4): >48 h
SGF stability [7]: >48 h
AUC [8, 40]: 0.183 µM·h
Tmax [8, 40]: 4.98 min
Cmax ([8]; female, C57BL/6, mouse, plasma, ip, 3 mg/kg, Cmax, mice): 327 nM
half-life ([8]; female, C57BL/6, mouse, plasma, ip, 3 mg/kg, T1/2, mice): 13.8 min
AUC [8, 41]: 0.683 µM·h
Tmax [8, 41]: 4.98 min
Cmax ([8]; female, C57BL/6, mouse, plasma, ip, 5 mg/kg, Cmax, mice): 927 nM
half-life ([8]; female, C57BL/6, mouse, plasma, ip, 5 mg/kg, T1/2, mice): 32.4 min
AUC [8, 42]: 0.953 µM·h
Tmax [8, 42]: 15 min
Cmax ([8]; female, C57BL/6, mouse, plasma, ip, 10 mg/kg, Cmax, mice): 1620 nM
half-life ([8]; female, C57BL/6, mouse, plasma, ip, 10 mg/kg, T1/2, mice): 60 min
half-life ([8]; female, C57BL/6, mouse, plasma, ip, 10 mg/kg, half-life, mice, across 3, 5 and 10 mg/kg): 13.8 to 60 min
Cl ([8]; mice, i.p., 3 mg/kg): 50.7 L/h/kg
Cmax ([8]; mice, i.p., 3 mg/kg): 376 nM
Vz ([8]; mice, i.p., 3 mg/kg): 16.7 L/kg
Cl ([8]; mice, i.p., 5 mg/kg): 23.8 L/h/kg
Vz ([8]; mice, i.p., 5 mg/kg): 18.6 L/kg
Cl ([8]; mice, i.p., 10 mg/kg): 33.1 L/h/kg
Cmax ([8]; mice, i.p., 10 mg/kg): 1650 nM
Vz ([8]; mice, i.p., 10 mg/kg): 47.3 L/kg
Kd [9]: 260 nM
Kd [10]: 1100 nM
Kd [11]: 460 nM
Kd [12]: 440 nM
Kd [13]: 28 nM
Kd [14]: 480 nM
Kd [15]: 28 nM
Kd [16]: 330 nM
Kd [17]: 740 nM
CLint scaled at 4 µM [18]: 180 ± 19.4 mL/min/kg
half-life [18]: 12 to 60 min
half-life at 4 µM [18]: 18 ± 1.8 min
CLint scaled at 4 µM [19]: 41.7 ± 2.7 mL/min/kg
half-life at 4 µM [19]: 66 ± 6 min
CLint scaled at 4 µM [20]: 28.2 ± 1.9 mL/min/kg
half-life at 4 µM [20]: 72 ± 6 min
CLint scaled at 4 µM [21]: 10 ± 0.6 mL/min/kg
half-life at 4 µM [21]: 126 ± 6 min
Compound: CC(C)Nc1ccnc(Nc2cccc(-c3cccnc3)c2)n1 [Compound 5e, N^4-Isopropyl-N^2-(3-(pyridin-3-yl)phenyl)pyrimidine-2,4-diamine]
fold improvement in MV4-11 growth inhibition relative to 1 [1]: approximately 10 fold

Kd [22]: 2100 nM
Kd [23]: 1600 nM
Kd [24]: > 10 µM
Kd [25]: 2100 nM
Kd [26]: 3.9 µM
Kd [9]: 430 nM
Kd [10]: 690 nM
Kd [27]: 1500 nM
Kd [28]: 2100 nM
Kd [29]: 1500 nM
Kd [30]: 1500 nM
Kd [31]: 2900 nM
Kd [32]: 2800 nM
Kd [33]: 2500 nM
Kd [15]: 120 nM
Kd [16]: 370 nM
Kd [34]: 1600 nM
Kd [35]: 1200 nM
Kd [36]: 1400 nM
Kd [37]: 1100 nM
Kd [38]: 1100 nM
Kd [39]: 2700 nM
CLint scaled at 4 µM [18]: 26.5 ± 1.6 mL/min/kg
half-life at 4 µM [18]: 15.6 ± 1.8 min
CLint scaled at 4 µM [19]: 44.9 ± 1.4 mL/min/kg
half-life at 4 µM [19]: 62.4 ± 1.8 min
CLint scaled at 4 µM [20]: 49.4 ± 3.9 mL/min/kg
half-life at 4 µM [20]: 42 ± 6 min
CLint scaled at 4 µM [21]: 26.6 ± 2.2 mL/min/kg
half-life at 4 µM [21]: 48 ± 6 min
Compound: c1cncc(-c2cccc(Nc3nccc(NC4CCCCC4)n3)c2)c1 [Compound 1, N^4-Cyclohexyl-N^2-(3-(pyridin-3-yl)phenyl)pyrimidine-2,4-diamine]
